Measured values reported in paper PMC9150124, “Design of a Potent, Selective, and Brain-Penetrant Inhibitor of Wnt-Deactivating Enzyme Notum by Optimization of a Crystallographic Fragment Hit” (Journal of Medicinal Chemistry, 2022).

What was measured:
Test in all cases: SelectScreen kinase profiling, SSBK LanthaScreen Binding SP Technology
[1] = biological target: kinase named in conditions (Homo sapiens, UniProt P15056); conditions: BRAF, 10 μM
[2] = biological target: kinase named in conditions (Homo sapiens, UniProt P19525); conditions: EIF2AK2 (PKR), 10 μM
[3] = biological target: kinase named in conditions (Homo sapiens, UniProt Q8WXR4); conditions: MYO3B (MYO3 beta), 10 μM
[4] = biological target: kinase named in conditions (Homo sapiens, UniProt Q9Y3S1); conditions: WNK2, 10 μM
[5] = biological target: kinase named in conditions (Homo sapiens, UniProt Q96S53); conditions: TESK2, 10 μM
[6] = biological target: kinase named in conditions (Homo sapiens, UniProt Q9Y2K2); conditions: SIK3, 10 μM
Chain of kinase named in conditions (Homo sapiens, UniProt Q9Y2K2) (Q9Y2K2 whole entry): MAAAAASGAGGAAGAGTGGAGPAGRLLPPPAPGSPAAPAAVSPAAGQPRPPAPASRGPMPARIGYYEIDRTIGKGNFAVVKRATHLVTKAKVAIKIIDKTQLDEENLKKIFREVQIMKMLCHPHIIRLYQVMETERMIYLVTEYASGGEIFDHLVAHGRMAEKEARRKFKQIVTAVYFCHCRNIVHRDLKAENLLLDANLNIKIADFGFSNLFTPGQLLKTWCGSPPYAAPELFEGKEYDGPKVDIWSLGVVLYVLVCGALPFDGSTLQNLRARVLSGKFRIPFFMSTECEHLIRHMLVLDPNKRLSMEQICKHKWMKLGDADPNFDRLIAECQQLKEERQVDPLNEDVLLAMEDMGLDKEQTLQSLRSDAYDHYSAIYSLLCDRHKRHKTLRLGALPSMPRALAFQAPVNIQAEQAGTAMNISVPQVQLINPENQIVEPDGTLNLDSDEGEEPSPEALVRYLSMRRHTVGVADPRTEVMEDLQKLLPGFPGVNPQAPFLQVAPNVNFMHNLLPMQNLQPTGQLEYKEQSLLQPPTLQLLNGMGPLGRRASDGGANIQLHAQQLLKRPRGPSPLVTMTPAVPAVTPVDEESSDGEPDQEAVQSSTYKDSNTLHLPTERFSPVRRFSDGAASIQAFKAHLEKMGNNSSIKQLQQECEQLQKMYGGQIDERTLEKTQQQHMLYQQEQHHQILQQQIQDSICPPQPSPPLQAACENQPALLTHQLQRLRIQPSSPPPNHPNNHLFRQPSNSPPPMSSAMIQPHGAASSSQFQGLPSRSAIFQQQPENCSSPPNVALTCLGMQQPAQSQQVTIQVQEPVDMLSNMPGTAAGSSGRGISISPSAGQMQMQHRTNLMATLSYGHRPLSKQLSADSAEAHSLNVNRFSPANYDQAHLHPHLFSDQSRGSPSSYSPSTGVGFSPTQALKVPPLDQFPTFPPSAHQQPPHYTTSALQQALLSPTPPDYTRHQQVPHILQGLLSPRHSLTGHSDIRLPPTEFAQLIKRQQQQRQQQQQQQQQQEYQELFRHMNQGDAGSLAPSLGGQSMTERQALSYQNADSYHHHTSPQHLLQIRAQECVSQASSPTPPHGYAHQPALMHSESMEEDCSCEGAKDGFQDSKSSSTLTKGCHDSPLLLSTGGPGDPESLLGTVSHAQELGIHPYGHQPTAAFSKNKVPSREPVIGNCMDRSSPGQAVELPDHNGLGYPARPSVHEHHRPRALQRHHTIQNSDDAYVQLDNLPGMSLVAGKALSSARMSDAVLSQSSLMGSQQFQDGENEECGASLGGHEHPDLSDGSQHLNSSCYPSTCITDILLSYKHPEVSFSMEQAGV

[7] = biological target: kinase named in conditions (Homo sapiens, UniProt Q86Y07); conditions: VRK2, 10 μM
[8] = biological target: kinase named in conditions (Homo sapiens, UniProt Q86SG6); conditions: NEK8, 10 μM
Chain of kinase named in conditions (Homo sapiens, UniProt Q86SG6) (Q86SG6 whole entry): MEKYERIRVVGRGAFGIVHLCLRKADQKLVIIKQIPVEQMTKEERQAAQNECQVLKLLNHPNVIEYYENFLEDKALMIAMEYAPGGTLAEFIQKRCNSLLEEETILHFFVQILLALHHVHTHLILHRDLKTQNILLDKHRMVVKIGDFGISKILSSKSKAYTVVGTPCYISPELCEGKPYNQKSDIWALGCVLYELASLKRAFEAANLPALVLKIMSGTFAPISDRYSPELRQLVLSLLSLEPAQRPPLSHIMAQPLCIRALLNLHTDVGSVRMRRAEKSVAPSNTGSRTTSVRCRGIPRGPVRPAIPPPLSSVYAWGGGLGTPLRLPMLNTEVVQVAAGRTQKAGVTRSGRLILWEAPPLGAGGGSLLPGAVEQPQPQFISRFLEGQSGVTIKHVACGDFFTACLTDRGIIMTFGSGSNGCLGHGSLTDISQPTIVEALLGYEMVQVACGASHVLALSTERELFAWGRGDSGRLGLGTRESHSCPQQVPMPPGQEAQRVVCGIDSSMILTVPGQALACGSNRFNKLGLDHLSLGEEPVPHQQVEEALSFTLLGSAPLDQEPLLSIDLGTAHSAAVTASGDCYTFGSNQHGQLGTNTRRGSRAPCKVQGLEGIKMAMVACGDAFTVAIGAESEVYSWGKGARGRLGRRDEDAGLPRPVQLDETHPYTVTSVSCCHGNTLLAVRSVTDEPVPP

[9] = biological target: kinase named in conditions (Homo sapiens, UniProt P22612); conditions: PRKACG (PRKAC gamma), 10 μM
[10] = biological target: kinase named in conditions (Homo sapiens, UniProt Q15208); conditions: STK38 (NDR), 10 μM
[11] = biological target: kinase named in conditions (Homo sapiens, UniProt Q12866, A708S); conditions: MERTK (cMER) A708S, 10 μM
[12] = biological target: kinase named in conditions (Homo sapiens, UniProt P10721, A829P); conditions: KIT A829P, 10 μM
[13] = biological target: kinase named in conditions (Homo sapiens, UniProt Q02763, R849W); conditions: TEK (TIE2) R849W, 10 μM
[14] = biological target: kinase named in conditions (Homo sapiens, UniProt P49336); conditions: CDK8/cyclin C, 10 μM
Chain of kinase named in conditions (Homo sapiens, UniProt P49336) (P49336 whole entry): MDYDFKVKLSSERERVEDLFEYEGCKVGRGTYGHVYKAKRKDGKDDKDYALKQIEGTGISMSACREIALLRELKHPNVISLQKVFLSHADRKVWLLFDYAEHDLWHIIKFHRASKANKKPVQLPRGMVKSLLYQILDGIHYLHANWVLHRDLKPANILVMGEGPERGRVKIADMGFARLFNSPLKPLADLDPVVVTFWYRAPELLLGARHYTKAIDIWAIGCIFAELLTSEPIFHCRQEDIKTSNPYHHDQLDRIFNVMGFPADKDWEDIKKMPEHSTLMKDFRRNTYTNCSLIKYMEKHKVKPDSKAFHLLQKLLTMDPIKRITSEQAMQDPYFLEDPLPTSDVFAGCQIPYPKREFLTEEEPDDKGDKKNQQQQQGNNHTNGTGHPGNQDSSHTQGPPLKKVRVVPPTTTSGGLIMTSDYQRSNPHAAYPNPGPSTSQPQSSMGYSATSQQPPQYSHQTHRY

[15] = biological target: kinase named in conditions (Homo sapiens, UniProt Q92918); conditions: MAP4K1 (HPK1), 10 μM
Chain of kinase named in conditions (Homo sapiens, UniProt Q92918) (Q92918 whole entry): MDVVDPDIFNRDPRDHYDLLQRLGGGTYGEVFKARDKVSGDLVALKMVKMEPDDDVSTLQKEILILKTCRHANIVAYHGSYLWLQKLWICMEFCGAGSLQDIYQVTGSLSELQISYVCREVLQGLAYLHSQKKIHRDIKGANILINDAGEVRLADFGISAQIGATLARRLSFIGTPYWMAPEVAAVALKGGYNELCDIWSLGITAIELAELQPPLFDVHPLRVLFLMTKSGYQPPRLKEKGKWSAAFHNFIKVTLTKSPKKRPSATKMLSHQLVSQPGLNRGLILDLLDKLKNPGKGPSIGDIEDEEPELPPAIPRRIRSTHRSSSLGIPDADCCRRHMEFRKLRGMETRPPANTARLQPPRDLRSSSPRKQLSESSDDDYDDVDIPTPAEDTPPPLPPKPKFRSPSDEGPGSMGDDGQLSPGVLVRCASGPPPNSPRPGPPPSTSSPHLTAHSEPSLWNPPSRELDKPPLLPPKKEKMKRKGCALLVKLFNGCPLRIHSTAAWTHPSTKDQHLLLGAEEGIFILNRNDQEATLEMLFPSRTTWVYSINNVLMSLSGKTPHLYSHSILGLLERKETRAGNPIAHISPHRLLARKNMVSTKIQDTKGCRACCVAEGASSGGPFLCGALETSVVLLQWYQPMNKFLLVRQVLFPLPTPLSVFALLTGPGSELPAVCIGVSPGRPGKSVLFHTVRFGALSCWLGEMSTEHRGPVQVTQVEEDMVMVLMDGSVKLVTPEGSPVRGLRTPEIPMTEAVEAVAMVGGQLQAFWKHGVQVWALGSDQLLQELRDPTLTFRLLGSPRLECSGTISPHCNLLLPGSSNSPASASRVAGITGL

[16] = biological target: kinase named in conditions (Homo sapiens, UniProt P52564, S207E/T211E); conditions: MAP2K6 (MKK6) S207E T211E, 10 μM
[17] = biological target: kinase named in conditions (Homo sapiens, UniProt Q16584); conditions: MAP3K11 (MLK3), 10 μM
Chain of kinase named in conditions (Homo sapiens, UniProt Q16584) (Q16584 whole entry): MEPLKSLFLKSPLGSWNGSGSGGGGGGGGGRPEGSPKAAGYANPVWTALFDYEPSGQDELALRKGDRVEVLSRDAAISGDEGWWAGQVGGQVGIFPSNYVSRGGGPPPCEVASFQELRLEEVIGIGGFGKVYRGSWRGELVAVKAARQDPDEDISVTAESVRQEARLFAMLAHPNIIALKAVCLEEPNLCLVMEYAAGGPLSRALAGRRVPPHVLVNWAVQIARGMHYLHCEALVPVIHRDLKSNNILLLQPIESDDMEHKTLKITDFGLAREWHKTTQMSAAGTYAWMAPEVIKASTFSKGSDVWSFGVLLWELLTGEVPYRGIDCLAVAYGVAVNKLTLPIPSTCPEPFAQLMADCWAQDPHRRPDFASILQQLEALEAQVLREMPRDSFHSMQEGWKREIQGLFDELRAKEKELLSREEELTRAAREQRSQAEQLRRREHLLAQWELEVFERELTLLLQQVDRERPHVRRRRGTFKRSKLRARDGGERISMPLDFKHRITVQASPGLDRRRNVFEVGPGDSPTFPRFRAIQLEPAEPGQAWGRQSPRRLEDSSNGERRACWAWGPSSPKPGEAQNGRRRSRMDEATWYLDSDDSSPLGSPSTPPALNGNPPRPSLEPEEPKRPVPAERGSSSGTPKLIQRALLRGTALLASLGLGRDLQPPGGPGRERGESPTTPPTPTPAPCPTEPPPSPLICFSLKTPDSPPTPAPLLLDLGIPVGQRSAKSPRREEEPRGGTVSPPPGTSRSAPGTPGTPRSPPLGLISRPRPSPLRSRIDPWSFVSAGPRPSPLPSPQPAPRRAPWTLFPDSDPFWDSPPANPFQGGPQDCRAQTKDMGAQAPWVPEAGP

[18] = biological target: kinase named in conditions (Homo sapiens, UniProt Q9H2K8); conditions: TAOK3 (JIK), 10 μM
[19] = biological target: kinase named in conditions (Homo sapiens, UniProt Q9UIK4); conditions: DAPK2, 10 μM
[20] = biological target: kinase named in conditions (Homo sapiens, UniProt P36897); conditions: TGFBR1 (ALK5), 10 μM
[21] = biological target: kinase named in conditions (Homo sapiens, UniProt Q8IYT8); conditions: ULK2, 10 μM
[22] = biological target: kinase named in conditions (Homo sapiens, UniProt P37023); conditions: ACVRL1 (ALK1), 10 μM
[23] = biological target: kinase named in conditions (Homo sapiens, UniProt Q9UM73, R1275Q); conditions: ALK R1275Q, 10 μM
[24] = biological target: kinase named in conditions (Homo sapiens, UniProt Q6PHR2); conditions: ULK3, 10 μM
[25] = biological target: kinase named in conditions (Homo sapiens, UniProt P27037); conditions: ACVR2A, 10 μM
[26] = biological target: kinase named in conditions (Homo sapiens, UniProt O75716); conditions: STK16 (PKL12), 10 μM
[27] = biological target: kinase named in conditions (Homo sapiens, UniProt Q9H093); conditions: NUAK2, 10 μM
[28] = biological target: kinase named in conditions (Homo sapiens, UniProt P06241); conditions: FYN A, 10 μM
[29] = biological target: kinase named in conditions (Homo sapiens, UniProt Q16513); conditions: PKN2 (PRK2), 10 μM
[30] = biological target: kinase named in conditions (Homo sapiens, UniProt P15056, V600E); conditions: BRAF V599E, 10 μM
Chain of kinase named in conditions (Homo sapiens, UniProt P15056, V600E) (P15056 whole entry V600E): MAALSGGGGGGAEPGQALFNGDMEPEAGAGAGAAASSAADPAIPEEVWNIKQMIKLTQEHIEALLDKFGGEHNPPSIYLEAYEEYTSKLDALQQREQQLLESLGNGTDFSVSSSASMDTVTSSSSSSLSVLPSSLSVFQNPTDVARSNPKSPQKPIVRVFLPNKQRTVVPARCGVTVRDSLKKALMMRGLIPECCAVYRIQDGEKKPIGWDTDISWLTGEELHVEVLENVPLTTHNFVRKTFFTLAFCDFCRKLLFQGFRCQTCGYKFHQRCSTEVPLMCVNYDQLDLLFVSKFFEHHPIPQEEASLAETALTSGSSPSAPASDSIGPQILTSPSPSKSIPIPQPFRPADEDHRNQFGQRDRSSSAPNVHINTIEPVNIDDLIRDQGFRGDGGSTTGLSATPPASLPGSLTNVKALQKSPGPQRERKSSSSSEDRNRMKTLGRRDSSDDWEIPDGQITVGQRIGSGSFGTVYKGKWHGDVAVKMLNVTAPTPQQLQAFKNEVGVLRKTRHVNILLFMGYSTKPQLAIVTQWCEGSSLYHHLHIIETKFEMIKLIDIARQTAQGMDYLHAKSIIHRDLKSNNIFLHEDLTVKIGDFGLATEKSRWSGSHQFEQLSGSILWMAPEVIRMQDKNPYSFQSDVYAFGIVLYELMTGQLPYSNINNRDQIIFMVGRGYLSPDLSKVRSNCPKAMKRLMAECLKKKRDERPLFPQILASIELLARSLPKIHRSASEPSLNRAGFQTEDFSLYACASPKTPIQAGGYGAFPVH

[31] = biological target: kinase named in conditions (Homo sapiens, UniProt Q9BYT3); conditions: STK33, 10 μM
[32] = biological target: kinase named in conditions (Homo sapiens, UniProt Q00536); conditions: CDK16 (PCTK1)/cyclin Y, 10 μM
[33] = biological target: kinase named in conditions (Homo sapiens, UniProt P45985); conditions: MAP2K4 (MEK4), 10 μM
[34] = biological target: kinase named in conditions (Homo sapiens, UniProt P57059); conditions: SIK1, 10 μM

Chain of kinase named in conditions (Homo sapiens, UniProt P15056) (P15056 whole entry): as the sequence (P15056 whole entry V600E) above, with E600V counted along it

## FC(F)(F)c1c(Cl)ccc(-n2ccnn2)c1Cl [8l, 1-(2,4-Dichloro-3-(trifluoromethyl)phenyl)-1H-1,2,3-triazole]
[1]
  inhibition at 10 µM: 7%
[2]
  inhibition at 10 µM: 6%
[3]
  inhibition at 10 µM: 4%
[4]
  inhibition at 10 µM: 2%
[5]
  inhibition at 10 µM: 6%
[6]
  inhibition at 10 µM: 4%
[7]
  inhibition at 10 µM: -11%
[8]
  inhibition at 10 µM: 2%
[9]
  inhibition at 10 µM: 6%
[10]
  inhibition at 10 µM: -8%
[11]
  inhibition at 10 µM: -3%
[12]
  inhibition at 10 µM: -3%
[13]
  inhibition at 10 µM: 19%
[14]
  inhibition at 10 µM: 18%
[15]
  inhibition at 10 µM: 15%
[16]
  inhibition at 10 µM: 11%
[17]
  inhibition at 10 µM: 3%
[18]
  inhibition at 10 µM: -5%
[19]
  inhibition at 10 µM: 23%
[20]
  inhibition at 10 µM: -1%
[21]
  inhibition at 10 µM: 8%
[22]
  inhibition at 10 µM: 12%
[23]
  inhibition at 10 µM: -2%
[24]
  inhibition at 10 µM: -4%
[25]
  inhibition at 10 µM: 4%
[26]
  inhibition at 10 µM: 17%
[27]
  inhibition at 10 µM: 7%
[28]
  inhibition at 10 µM: -8%
[29]
  inhibition at 10 µM: -4%
[30]
  inhibition at 10 µM: 0%
[31]
  inhibition at 10 µM: 6%
[32]
  inhibition at 10 µM: 8%
[33]
  inhibition at 10 µM: -2%
[34]
  inhibition at 10 µM: -3%
